Laboratory results from patent US20260306526A1, “COMBINATION THERAPY FOR BACTERIAL INFECTIONS COMPRISING ZINC-CHELATOR, BETA-LACTAM ANTIBIOTIC AND SERINE BETA-LACTAMASE INHIBITOR” (priority 2023, published 2026).

Experiments:
[1] = tested on: MBLs; details: cited from earlier work
[2] = tested on: clinically isolated gram-negative bacteria with MBL as a resistance mechanism; details: cited from earlier work
[3] = tested on: K. pneumoniae K66-45 (NDM-1); experiment: MIC determination of meropenem with zinc chelator at varying zinc concentrations in the medium (Example 31); assay type: cell-based, Klebsiella pneumoniae
Description: An experiment was conducted to determine the Minimal Inhibitory Concentration (MIC) of meropenem (MEM) in combination with the zinc chelator according to Example 26 of WO 2018/033719 at varying concentrations of zinc in the medium. The medium was a Mueller Hinton broth from Thermo Fischer. The zinc content was measured as 5.6 μM using ICP-MS. The concentration of zinc in the plasma of healthy animals has been determined to be close to this value. In infectious tissue, the zinc concentration is below the limit of detection (see, for example Bilinskaya et al., Am. Soc. For Microbiology (2020), 58, pages 1-8). Zinc sulfate was then added to this broth to obtain three further concentrations: 15.6 μM, 25.6 μM and 35.6 μM of zinc, keeping all other parameters constant.
As a model bacterial strain for this experiment, the MIC of MEM vs. K. pneumoniae K66-45 (NDM-1) was then determined in broth containing the four concentrations of zinc following the protocol given in Example 1. The EUCAST MIC value for MEM alone (EUCAST: standardization organization for MIC values of antibiotics) is 4-8 μM, meaning that if a bacterial strain is inhibited at lower concentrations than the MIC value, the bacterial strain is sensitive(S) to MEM. Correspondingly, if the bacterial strain is not inhibited at MIC or lower, the strain is resistant (R). If the inhibition is within the MIC range 4-8 μM, the resistance is intermediate (I).

[4] = tested on: NDM; details: mouse models; relatively high doses required to reverse carbapenem resistance; cited from earlier work
[5] = tested on: MBL-producers; details: cited from earlier work
[6] = tested on: MBL class IMP; details: cited from earlier work

## NC(=O)[C@@H]1CC[C@@H]2CN1C(=O)N2OS(=O)(=O)O [Avibactam, avibactam]
[1]
  inhibitory activity against MBLs: none of these β-lactamase inhibitors possess inhibitory activity against MBLs

## CC1=C[C@@H]2CN(C(=O)N2OS(=O)(=O)O)[C@@H]1C(N)=O [ETX2514]
[1]
  inhibitory activity against MBLs: none of these β-lactamase inhibitors possess inhibitory activity against MBLs

## C[C@@H](O)[C@H]1C(=O)N2C(C(=O)O)=C(S[C@@H]3CN[C@H](C(=O)N(C)C)C3)[C@H](C)[C@H]12 [Meropenem, meropenem, reference compound]
[2]; meropenem used alone, many clinical isolates with MBL
  sensitivity to meropenem alone: resistant to the antibiotic
[2]; same strains, sensitivity reinstated
  effect of MEM in combination with the compound of Example 26 of WO 2018/033719: inhibitory effect
[3]; zinc concentration 5.6 μM
  EUCAST MIC class for MEM alone: S (if a bacterial strain is inhibited at lower concentrations than the MIC value, the bacterial strain is sensitive(S) to MEM)
[3]; zinc concentration 35.6 μM
  EUCAST MIC class for MEM alone: R (if the bacterial strain is not inhibited at MIC or lower, the strain is resistant (R))

## N[C@H](CN[C@H](CN[C@@H](CC(=O)O)C(=O)O)C(=O)O)C(=O)O [aspergillomarasmine A]
[4]
  in vivo activity: in vivo activity in mouse models

## NCCN[C@H]1CC[C@H](CC(=O)N[C@H]2Cc3cccc(C(=O)O)c3OB2O)CC1 [taniborbactam]
[5]
  activity in combination with cefepime: potent activity
[6]
  effect in combination with cefepime: no effect

## O=C(O)C[C@@H]1CC[C@H](NC(=O)Cc2cccs2)B(O)O1 [vaborbactam]
[1]
  inhibitory activity against MBLs: none of these β-lactamase inhibitors possess inhibitory activity against MBLs
